The record followed here is PubChem BioAssay AID330 (DTP/NCI, 2004).

“And” between values parts separate entries of the source, which are not always exact repeats. Identical values can stand only once. Inconclusive results and toxic doses are left out.

This assay has as its system P388 leukemia ip, CD2F1 mice, survival T/C. The assay can be described thus: NCI In Vivo Anticancer Drug Screen. Data for tumor model P388 Leukemia (intraperitoneal) in CD2F1 (CDF1) mice. Particulars: endpoint: median survival time, higher = longer survival. The method, boiled down:
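Mice carrying the transplanted tumor received test compound or vehicle. Survival was recorded in each group, and the value is the treated-group measurement divided by that of the vehicle-treated control group.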

Where [1] appears, read: dose: 50.0 mg/kg/injection, schedule: Q01DX005 (ip), vehicle: saline with Tween-80.
Setting [2] is: dose: 100.0 mg/kg/injection, schedule: Q01DX005 (ip), vehicle: saline with Tween-80.
Where [3] appears, read: dose: 200.0 mg/kg/injection, schedule: Q01DX005 (ip), vehicle: saline with Tween-80.
Setting [4] is: dose: 100.0 mg/kg/injection, schedule: Q01DX009 (ip), vehicle: saline with Tween-80.
Setting [5] is: dose: 200.0 mg/kg/injection, schedule: Q01DX009 (ip), vehicle: saline with Tween-80.
Setting [6] is: dose: 60.0 mg/kg/injection, schedule: Q01DX005 (ip), vehicle: saline with Tween-80.
[7] abbreviates: dose: 120.0 mg/kg/injection, schedule: Q01DX005 (ip), vehicle: saline with Tween-80.
Setting [8] is: dose: 240.0 mg/kg/injection, schedule: Q01DX005 (ip), vehicle: saline with Tween-80.
Where [9] appears, read: dose: 50.0 mg/kg/injection, schedule: Q01DX009 (ip), vehicle: saline with Tween-80.
The mark [10] stands for this setting: dose: 25.0 mg/kg/injection, schedule: Q01DX009 (ip), vehicle: saline with Tween-80.

Regarding `COc1cc(C2c3cc(OS(=O)(=O)c4ccc(C)cc4)c(OC)cc3CC3C(=O)OCC32)ccc1OS(=O)(=O)c1ccc(C)cc1` (stereo not given), the T/C was 91 % of control and 92 % of control under setting [1]; 91 % of control under setting [2]; 91 % of control under setting [3].

Consider `CCC1OCCN1C(C)C` (stereo not given), for which the T/C (dose: 100.0 mg/kg/injection, schedule: Q04DX003 (ip), vehicle: saline with Tween-80) was 104 % of control and the T/C (dose: 200.0 mg/kg/injection, schedule: Q04DX003 (ip), vehicle: saline with Tween-80) was 100 % of control.

Regarding `O=C(Nc1cc(Cl)ccc1Cl)/C(Cl)=C1/Sc2ccccc2NC1=O`, the T/C is, setting by setting: (dose: 100.0 mg/kg/injection, schedule: Q01DX001 (ip), vehicle: saline with Tween-80) 108 % of control; (dose: 200.0 mg/kg/injection, schedule: Q01DX001 (ip), vehicle: saline with Tween-80) 90 % of control; (dose: 400.0 mg/kg/injection, schedule: Q01DX001 (ip), vehicle: saline with Tween-80) 90 % of control.

Turning to `Nc1nc(C2CCCC2)cc(=O)[nH]1`, the T/C is 108 % of control (dose: 50.0 mg/kg/injection, schedule: Q01DX005 (ip), vehicle: Klucel (hydroxypropylcellulose) (HPC)); 105 % of control (dose: 100.0 mg/kg/injection, schedule: Q01DX005 (ip), vehicle: Klucel (hydroxypropylcellulose) (HPC)); 97 % of control (dose: 200.0 mg/kg/injection, schedule: Q01DX005 (ip), vehicle: Klucel (hydroxypropylcellulose) (HPC)).

With `O=P(Oc1cccc2ccccc12)(N1CC1)N1CC1`, the T/C (dose: 6.25 mg/kg/injection, schedule: Q01DX009 (ip), vehicle: saline) was 90 % of control; the T/C (dose: 12.5 mg/kg/injection, schedule: Q01DX009 (ip), vehicle: saline) was 95 % of control; the T/C (dose: 25.0 mg/kg/injection, schedule: Q01DX009 (ip), vehicle: saline) was 100 % of control; the T/C under setting [4] is 177 % of control; the T/C under setting [5] is 95 % of control.

Consider `NC(=O)c1nc2ccccn2c1[N+](=O)[O-]`, for which the T/C (dose: 50.0 mg/kg/injection, schedule: Q01DX009 (ip), vehicle: Klucel (hydroxypropylcellulose) (HPC)) was 99 % of control; the T/C (dose: 100.0 mg/kg/injection, schedule: Q01DX009 (ip), vehicle: Klucel (hydroxypropylcellulose) (HPC)) was 101 % of control; the T/C (dose: 200.0 mg/kg/injection, schedule: Q01DX009 (ip), vehicle: Klucel (hydroxypropylcellulose) (HPC)) was 108 % of control.

Consider `O=[N+]([O-])c1cccc(-c2ccccc2)c1Br`, for which the T/C reads like this: (dose: 37.5 mg/kg/injection, schedule: Q04DX003 (ip), vehicle: saline with Tween-80) 100 % of control; (dose: 75.0 mg/kg/injection, schedule: Q04DX003 (ip), vehicle: saline with Tween-80) 100 % of control; (dose: 150.0 mg/kg/injection, schedule: Q04DX003 (ip), vehicle: saline with Tween-80) 100 % of control.

Take `COc1ccc(/C=N/Nc2nnc3c4ccccc4c4ccccc4c3n2)cc1OC`: the T/C by setting is: (dose: 50.0 mg/kg/injection, schedule: Q04DX002 (ip), vehicle: suspension in saline) 86 % of control; (dose: 100.0 mg/kg/injection, schedule: Q04DX002 (ip), vehicle: suspension in saline) 89 % of control; (dose: 200.0 mg/kg/injection, schedule: Q04DX002 (ip), vehicle: suspension in saline) 90 % of control.

Consider `CC(=O)c1cc2cc3c4c(c2oc1=O)CCCN4CCC3`, for which the T/C is, setting by setting: (dose: 60.0 mg/kg/injection, schedule: Q01DX005 (ip), vehicle: Klucel (hydroxypropylcellulose) (HPC)) 104 % of control; (dose: 120.0 mg/kg/injection, schedule: Q01DX005 (ip), vehicle: Klucel (hydroxypropylcellulose) (HPC)) 112 % of control.

`NC(=S)NC12CC3CC(CC(C3)C1)C2`: the T/C was 99 % of control (dose: 50.0 mg/kg/injection, schedule: Q04DX002 (ip), vehicle: saline with Tween-80); 98 % of control (dose: 100.0 mg/kg/injection, schedule: Q04DX002 (ip), vehicle: saline with Tween-80); 98 % of control (dose: 200.0 mg/kg/injection, schedule: Q04DX002 (ip), vehicle: saline with Tween-80).

For `Cc1nc(N)nc(Nc2ccccc2)n1`, the T/C runs as follows: under setting [6], 103 % of control; under setting [7], 99 % of control; under setting [8], 101 % of control.

As for `CCC12CCCN3CCC4(c5ccc(OC)cc5N(C)C4C(O)(OC(C)=O)C1OC(C)O)C32` (stereo not given), the T/C reads like this: under setting [1], 100 % of control; under setting [2], 87 % of control.

Take `CC(C)(C)N=C(CCSc1ccccc1)Nc1c(Cl)cccc1Cl`: the T/C under setting [9] was 100 % of control, the T/C under setting [4] is 105 % of control and the T/C under setting [5] is 96 % of control.

On to `C=CCCC/C=C/CN1CCOCC1`, for which the T/C is 103 % of control (dose: 50.0 mg/kg/injection, schedule: Q01DX009 (ip), vehicle: saline) and 105 % of control (dose: 100.0 mg/kg/injection, schedule: Q01DX009 (ip), vehicle: saline).

On to `COc1cccc2c1C(=O)c1c(O)c3c(c(O)c1C2=O)CC(O)(C(C)=O)CC3OC1CC(NC(=O)CN(C)C)C(O)C(C)O1` (stereo not given), for which the T/C by setting is: (dose: 0.25 mg/kg/injection, schedule: Q01DX009 (ip), vehicle: water) 109 % of control; (dose: 0.5 mg/kg/injection, schedule: Q01DX009 (ip), vehicle: water) 120 % of control.

As to `CCOCCSc1ccccc1`, the T/C was 99 % of control under setting [10], 103 % of control under setting [9], 112 % of control under setting [4] and 105 % of control under setting [5].

Turning to `CC(C)CN=C(N)Nc1cccc(NC(=O)Nc2ccc(Cl)cc2)c1`, the T/C is, setting by setting: (dose: 12.5 mg/kg/injection, schedule: Q01DX009 (ip), vehicle: saline with Tween-80) 92 % of control; under setting [10], 86 % of control; under setting [9], 109 % of control and 91 % of control.

In the case of `COc1ccc2c(c1)C13CCCCC1C(C2)N(C)CC3` (stereo not given), the T/C reads like this: (dose: 12.5 mg/kg/injection, schedule: Q01DX005 (ip), vehicle: saline with Tween-80) 94 % of control; (dose: 25.0 mg/kg/injection, schedule: Q01DX005 (ip), vehicle: saline with Tween-80) 100 % of control; under setting [1], 100 % of control; (dose: 50.0 mg/kg/injection, schedule: Q01DX005 (ip), vehicle: saline) 99 % of control.

For the molecule `CCCCCCCCCCCCCCC1(O)OC(=O)C(C)=C1C` (stereo not given), the T/C was 106 % of control (dose: 12.5 mg/kg/injection, schedule: Q04DX003 (ip), vehicle: saline with Tween-80); 103 % of control (dose: 25.0 mg/kg/injection, schedule: Q04DX003 (ip), vehicle: saline with Tween-80); 106 % of control (dose: 50.0 mg/kg/injection, schedule: Q04DX003 (ip), vehicle: saline with Tween-80).

For `CC1(CO)COC(c2ccc(Cl)cc2)N1` (stereo not given), the T/C reads like this: (dose: 50.0 mg/kg/injection, schedule: Q01DX005 (ip), vehicle: acetone) 106 % of control; (dose: 100.0 mg/kg/injection, schedule: Q01DX005 (ip), vehicle: acetone) 106 % of control; (dose: 200.0 mg/kg/injection, schedule: Q01DX005 (ip), vehicle: acetone) 112 % of control.

Regarding `COc1cc2c(cc1OC)[C@H](c1cc(OC)c3c(c1)OCO3)[C@H]1C(=O)OCC1C2` (stereo not given in full), the T/C is 89 % of control (dose: 15.0 mg/kg/injection, schedule: Q01DX005 (ip), vehicle: saline with Tween-80); 88 % of control (dose: 30.0 mg/kg/injection, schedule: Q01DX005 (ip), vehicle: saline with Tween-80); 90 % of control and 92 % of control under setting [6]; 98 % of control under setting [7]; 99 % of control under setting [8].

On to `c1ccc2sc(-c3ccncc3)nc2c1`, for which the T/C by setting is: under setting [9], 102 % of control; under setting [4], 99 % of control; under setting [5], 108 % of control.

For `CSc1nnc(C2CCC(=O)N2Cc2ccccc2)o1` (stereo not given), the T/C is, setting by setting: (dose: 60.0 mg/kg/injection, schedule: Q01DX005 (ip), vehicle: saline) 105 % of control; (dose: 120.0 mg/kg/injection, schedule: Q01DX005 (ip), vehicle: saline) 102 % of control; (dose: 240.0 mg/kg/injection, schedule: Q01DX005 (ip), vehicle: saline) 104 % of control.

Take `Cc1ccc(N2CCOS(=O)OCC2)cc1`: the T/C is 101 % of control under setting [1], 98 % of control under setting [2] and 101 % of control under setting [3].

Turning to `C/C1=C2N=C(/C=C3N=C(/C(C)=C4\[N-]C(C(CC(N)=O)C4(C)CCC(=O)NCC(C)OP(=O)(O)OC4C(CO)OC(n5cnc6cc(C)c(C)cc65)C4O)C4(C)N=C1C(CCC(N)=O)C4(C)CC(N)=O)C(CCC(N)=O)C\3(C)C)C(CCC(N)=O)C/2(C)CC(N)=O.[CH2-]CC.[Co+2]` (stereo not given), the T/C is, setting by setting: (dose: 76.1 micrograms/kg/injection, schedule: Q#A X Z (ip), vehicle: water) 88 % of control; (dose: 7610.0 micrograms/kg/injection, schedule: Q#A X Z (ip), vehicle: water) 99 % of control.
